The values that follow come from patent publication US20240066089A1, “ARTOCARPUS HETEROPHYLLUS COMPOSITION AND METHOD OF PROMOTING URINARY TRACT HEALTH” (priority 2022, published 2024).

Test [1] has as its system testosterone induced BPH model rats. The test is described as follows: Prostate growth in testosterone-induced BPH model rats. Type of test: in vivo, Wistar rats. Conditions: 28 days; for Growth inhibition (%): prostate growth, Fina group, 1 mg/kg, mean ± SD n = 6.
The next test has as its target 5-alpha-reductase. The test is described as follows: In vitro 5-alpha-reductase assay (NADPH absorbance at 340 nm, liver S9 fraction). Type of test: biochemical. Conditions: 20 μg liver S9 fraction, 6 minutes at 37° C., Finasteride 20-70 ng/mL. The method, then: In vitro 5-alpha-reductase assay was performed according to Sun et al. (1998) with some modifications. NADPH has characteristic absorbance at 340 nm, and the absorbance spectrum may be used to measure the decline in NADPH concentration as a measure of enzyme activity. Briefly, the reaction mixture contained 40 mM phosphate buffer pH 7.0, 93 μM NADPH, 2.265 μM testosterone and 20 μg liver S9 fraction with or without different concentrations of the extract (2-6 μg/mL) or reference compound Finasteride (20-70 ng/mL), incubated for 6 minutes at 37° C. The absorbance was read at 340 nm in UV-visible spectrophotometer. IC50 values were determined for the extract and Finasteride.

Test [2] relates to testosterone induced BPH model rats. The test is described as follows: Antioxidant activity in prostate tissue of BPH model rats (SOD, catalase, GSH, glutathione reductase). The note with it: Finasteride 1 mg/kg, in comparison with BPH group (p<0.001). Type of test: in vivo, Wistar rats.
The test system is the same in test [3]. The test is described as follows: Histopathological examination of prostate tissue of BPH model rats. The note with it: H&E stained sections. Format: in vivo, Wistar rats.

Converted amounts (≈) assume the structure as drawn.

For the molecule `CC(C)(C)NC(=O)[C@H]1CC[C@H]2[C@@H]3CC[C@H]4NC(=O)C=C[C@]4(C)[C@H]3CC[C@]12C` [Finasteride], the prostate weights result in test [1] (in comparison with BPH control (p<0.001)) was “reduced significantly”. In addition, the “Growth inhibition (%)” value was found to be 90.22% in test [1] and 90.22 ± 10.85% in test [1] (listed as Fina). For the same molecule, the “IC50 value, 5-alpha-reductase activity” value against 5-alpha-reductase amounted to 0.0632 mg/L (≈ 0.17 µM). Besides, the SOD activity entry in test [2] is “significantly increased”. In addition, the “pathological changes (hyperplastic patterns) in prostate tissue” value in test [3] is given as “not evident”.
